The source of these data is ChEMBL document CHEMBL1201862, “PubChem BioAssay data set” (2004).

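Cultured in 96-well plates, cells were exposed to test compound for 48 hours across five concentrations. GI50 is the concentration that inhibits growth by half.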 Calls of active or inactive are those of the source. Cut-off read from the data, not from the text of the source: active = GI50 up to about 1.1 µM and inactive = higher. Some results are limits rather than exact numbers.

Test systems include A498; BT-549; DU-145; HT-29; Hs-578T; IGROV-1; KM12; NCI-H522; OVCAR-4; OVCAR-8; RXF 393; SF-268; SK-MEL-2; SK-MEL-5; SK-OV-3; SN12C; SNB-19; SR; UACC-62; UO-31.
What all share (assay): NCI-60 cell line screen, 48 h

As to `CC(=O)Oc1ccc2[nH]c3c(C)c4cccc-4ccc3c2c1`, the GI50 was 2.1 µM (inactive) in the experiment on A498; 2.34 µM (inactive) with BT-549; 3.27 µM (inactive) in the experiment on DU-145; 2.02 µM (inactive) in the experiment on HT-29; 2.64 µM (inactive) in the experiment with Hs-578T; 1.57 µM (inactive) with IGROV-1. Further, the GI50 in the experiment with KM12 was 2.44 µM (inactive); with NCI-H522, 1.63 µM (inactive); in the experiment on OVCAR-4 it was 1.84 µM (inactive); in the experiment with OVCAR-8, 2.1 µM (inactive); in the experiment with RXF 393 it was 1.82 µM (inactive); in the experiment on SF-268, 2.02 µM (inactive). The GI50 is 1.96 µM (inactive) in the experiment with SK-MEL-2; 1.83 µM (inactive) in the experiment with SK-MEL-5; 2.02 µM (inactive) in the experiment on SK-OV-3; 2.47 µM (inactive) in the experiment with SN12C; 2.04 µM (inactive) in the experiment with SNB-19; 4.59 µM (inactive) in the experiment with SR. In addition, the values for the GI50 with UACC-62 and in the experiment with UO-31 were 1.81 µM (inactive) and 1.76 µM (inactive), respectively.
With `[O-][n+]1onc2c3nn(-c4ccccc4)nc3ccc21`, the GI50 was > 100 µM (inactive) in the experiment with A498; > 82.6 µM (inactive) with BT-549; 17.8 µM (inactive) with DU-145; 35.2 µM (inactive) in the experiment with HT-29; 32.1 µM (inactive) in the experiment with Hs-578T; > 100 µM (inactive) in the experiment with IGROV-1. Moreover, the GI50 in the experiment with KM12 is 18.6 µM (inactive); in the experiment with NCI-H522, > 96.2 µM (inactive); in the experiment on OVCAR-4, > 100 µM (inactive); in the experiment on OVCAR-8, > 91.4 µM (inactive); with RXF 393, > 65.9 µM (inactive); in the experiment with SF-268 it was > 86.7 µM (inactive). Moreover, the GI50 is > 100 µM (inactive) with SK-MEL-2; > 100 µM (inactive) with SK-MEL-5; > 100 µM (inactive) with SK-OV-3; > 100 µM (inactive) in the experiment with SN12C; > 100 µM (inactive) in the experiment on SNB-19; 4.43 µM (inactive) with SR. The GI50 in the experiment on UACC-62 was > 86.1 µM (inactive); with UO-31 it was > 100 µM (inactive).
As to `CC(C)(O)CCc1ccc(O)c2c(=O)c3c(O)c4c(cc3oc12)O[C@H]1OC=C[C@@]41O` [AUSTOCYSTIN D], the GI50 in the experiment with A498 was < 0.01 µM (active); in the experiment on BT-549, 9.06 µM (inactive); in the experiment on DU-145, < 0.01 µM (active); with HT-29 it was 1.24 µM (inactive); in the experiment on Hs-578T, 10.2 µM (inactive); in the experiment on IGROV-1 it was < 0.01 µM (active). Further, the GI50 in the experiment on KM12 is < 0.01 µM (active); in the experiment with NCI-H522, 5.27 µM (inactive); with OVCAR-4 it was < 0.01 µM (active); in the experiment with OVCAR-8, < 0.01 µM (active); in the experiment with RXF 393 it was 0.148 µM (active); with SF-268, 0.056 µM (active). Moreover, the GI50 was < 0.01 µM (active) with SK-MEL-2; 0.0102 µM (active) with SK-MEL-5; 0.0125 µM (active) with SK-OV-3; 8.69 µM (inactive) in the experiment with SN12C; 0.148 µM (active) in the experiment on SNB-19; 1.23 µM (inactive) with SR. In addition, the GI50 in the experiment on UACC-62 and in the experiment with UO-31 was < 0.01 µM (active) each time.
As for `CSc1nc2ccccc2c(=O)n1-c1cccc(C)c1`, the GI50 in the experiment on A498 is 19.9 µM (inactive); with BT-549, > 100 µM (inactive); with DU-145 it was > 100 µM (inactive); in the experiment with HT-29, 38.6 µM (inactive); in the experiment with Hs-578T, 47.4 µM (inactive); in the experiment on IGROV-1, 39.2 µM (inactive). Also, the GI50 is 45.3 µM (inactive) in the experiment with KM12; 67.8 µM (inactive) in the experiment on NCI-H522; 86.7 µM (inactive) with OVCAR-4; > 100 µM (inactive) in the experiment on OVCAR-8; 81.8 µM (inactive) with RXF 393; 99.1 µM (inactive) in the experiment on SF-268. Besides, the GI50 is 70.5 µM (inactive) in the experiment on SK-MEL-2; 21.9 µM (inactive) with SK-MEL-5; > 100 µM (inactive) in the experiment with SK-OV-3; > 100 µM (inactive) with SN12C; > 100 µM (inactive) in the experiment with SNB-19; 15.7 µM (inactive) in the experiment on SR. For the same compound, the GI50 with UACC-62 is 71 µM (inactive); with UO-31, 0.364 µM (active).
For the compound `COC(=O)[C@@H]1[C@H](OC(C)=O)CCC2[C@@]3(C[C@@H](c4ccoc4)O[C@@H]3OC)[C@H](C)CC[C@]21C(=O)OC` (stereo not given in full), the GI50 in the experiment with A498, with BT-549, in the experiment on DU-145, in the experiment on HT-29, in the experiment on Hs-578T and with IGROV-1 was > 25 µM (inactive) throughout. Further, the GI50 in the experiment with KM12, with NCI-H522, in the experiment on OVCAR-4, in the experiment with OVCAR-8, with RXF 393 and with SF-268 was > 25 µM (inactive) throughout. For the same compound, the GI50 in the experiment on SK-MEL-2, with SK-MEL-5, in the experiment on SK-OV-3, with SN12C, with SNB-19 and with SR was > 25 µM (inactive) each time. The GI50 with UACC-62 and with UO-31 was > 25 µM (inactive) each time.
Turning to `COc1ccc2c(c1)[C@@]13CCN4CC5=CCO[C@H]6CC(=O)N2[C@H]1[C@H]6[C@H]5C[C@H]43`, the GI50 with A498 was 69.2 µM (inactive); in the experiment on BT-549, > 100 µM (inactive); in the experiment with DU-145, > 100 µM (inactive); in the experiment with HT-29, 37.2 µM (inactive); in the experiment with Hs-578T, 33.7 µM (inactive); in the experiment on IGROV-1 it was 34.9 µM (inactive). Further, the GI50 in the experiment on KM12 was > 100 µM (inactive); in the experiment on NCI-H522 it was 72.3 µM (inactive); in the experiment with OVCAR-4, > 100 µM (inactive); in the experiment with OVCAR-8, 59.2 µM (inactive); in the experiment with RXF 393, > 100 µM (inactive); in the experiment with SF-268, > 100 µM (inactive). Further, the GI50 in the experiment on SK-MEL-2 was > 100 µM (inactive); with SK-MEL-5, > 100 µM (inactive); in the experiment with SK-OV-3, > 100 µM (inactive); with SN12C, > 100 µM (inactive); in the experiment on SNB-19, > 100 µM (inactive); in the experiment on SR, 27.5 µM (inactive). In addition, the GI50 in the experiment on UACC-62 and in the experiment on UO-31 was > 100 µM (inactive) throughout.
As to `O=C1C2SC34c5c2c2ccccc2n5CCC3CCCN14` (stereo not given), the GI50 was > 100 µM (inactive) with A498; > 100 µM (inactive) in the experiment with BT-549; > 100 µM (inactive) in the experiment with DU-145; > 100 µM (inactive) in the experiment with HT-29; 38.1 µM (inactive) in the experiment with Hs-578T; 80.7 µM (inactive) in the experiment on IGROV-1. The GI50 with KM12 was > 100 µM (inactive); in the experiment with NCI-H522 it was 56.8 µM (inactive); in the experiment on OVCAR-4, 37.5 µM (inactive); in the experiment with OVCAR-8 it was 83.8 µM (inactive); in the experiment with RXF 393 it was 98.4 µM (inactive); in the experiment on SF-268, 39.4 µM (inactive). Further, the GI50 in the experiment on SK-MEL-2 was 74.6 µM (inactive); in the experiment on SK-MEL-5, > 100 µM (inactive); with SK-OV-3 it was > 100 µM (inactive); in the experiment with SN12C it was > 100 µM (inactive); in the experiment with SNB-19, 62.4 µM (inactive); with SR it was > 100 µM (inactive). Moreover, the GI50 in the experiment on UACC-62 and with UO-31 was > 100 µM (inactive) in each case.
Turning to `C=C1c2nc3ccccc3n2C=C(c2ccc(C)cc2)N1c1ccc(C)cc1`, the GI50 is > 100 µM (inactive) with A498; 51.6 µM (inactive) in the experiment on BT-549; > 83.4 µM (inactive) in the experiment on DU-145; 37.9 µM (inactive) in the experiment with HT-29; > 100 µM (inactive) in the experiment on Hs-578T; > 67.1 µM (inactive) in the experiment on IGROV-1. For the same compound, the GI50 was 23.8 µM (inactive) with KM12; 17.2 µM (inactive) with NCI-H522; 69.5 µM (inactive) with OVCAR-4; 18.9 µM (inactive) with OVCAR-8; 25.9 µM (inactive) in the experiment with RXF 393; > 100 µM (inactive) in the experiment on SF-268. Moreover, the GI50 in the experiment on SK-MEL-2 is 47.5 µM (inactive); in the experiment on SK-MEL-5 it was 19.8 µM (inactive); in the experiment with SK-OV-3 it was > 100 µM (inactive); in the experiment on SN12C, > 100 µM (inactive); in the experiment with SNB-19, > 100 µM (inactive); in the experiment on SR, 11.5 µM (inactive). In addition, the GI50 in the experiment on UACC-62 is > 83.8 µM (inactive); in the experiment on UO-31 it was 46 µM (inactive).
On to `NS(=O)(=O)c1ccc(NC(=O)Nc2ccccc2F)cc1`, for which the GI50 in the experiment on A498 is > 100 µM (inactive); in the experiment with BT-549, > 100 µM (inactive); in the experiment with DU-145 it was > 100 µM (inactive); in the experiment with HT-29, 76 µM (inactive); with Hs-578T, > 100 µM (inactive); in the experiment on IGROV-1, > 100 µM (inactive). The GI50 in the experiment with KM12, in the experiment with NCI-H522, with OVCAR-4, in the experiment on OVCAR-8, in the experiment with RXF 393 and with SF-268 was > 100 µM (inactive) each time. Also, the GI50 with SK-MEL-2, in the experiment on SK-MEL-5, in the experiment on SK-OV-3, in the experiment on SN12C, with SNB-19 and in the experiment with SR was > 100 µM (inactive) each time. Moreover, the GI50 is 72.3 µM (inactive) with UACC-62 and 41.7 µM (inactive) in the experiment with UO-31.
Regarding `COC(=O)C(Cc1c[nH]c2ccccc12)NC1=Nc2ccncc2S(=O)(=O)N1c1cccc(OC(C)C)c1` (stereo not given), the GI50 in the experiment on A498 is 82 µM (inactive); in the experiment on BT-549, 27.8 µM (inactive); in the experiment on DU-145, 32.8 µM (inactive); with HT-29, 34.2 µM (inactive); with Hs-578T, > 100 µM (inactive); with IGROV-1 it was 18.7 µM (inactive). Further, the GI50 in the experiment with KM12 is 63.2 µM (inactive); in the experiment with NCI-H522 it was 21.4 µM (inactive); in the experiment on OVCAR-4, 37.2 µM (inactive); with OVCAR-8, 30.3 µM (inactive); in the experiment on RXF 393, > 100 µM (inactive); in the experiment on SF-268, 41.9 µM (inactive). The GI50 was 39.7 µM (inactive) with SK-MEL-2; 25.5 µM (inactive) in the experiment on SK-MEL-5; > 100 µM (inactive) with SK-OV-3; 48.1 µM (inactive) with SN12C; 68.1 µM (inactive) in the experiment on SNB-19; 21.8 µM (inactive) with SR. The GI50 in the experiment on UACC-62 was 25.9 µM (inactive); in the experiment with UO-31 it was 45.3 µM (inactive).
